According to PubChem BioAssay (NCI):
Several values for one entry are separate records, joined by “and”; a condition that tells them apart may be missing. Identical values can stand only once.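 48-hour exposure; five concentrations; linearly interpolated endpoints. Abbreviation: GI50, concentration required for 50% inhibition of growth. At the TGI there is no net growth.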

What was measured:
Experiment in all cases: NCI tumour cell line growth inhibition, 48 h
[1] = test system: A549 NSCLC
[2] = test system: HCT-15 colon
[3] = test system: HOP-62 NSCLC
[4] = test system: HS 578T breast
[5] = test system: MDA-MB-231 breast
[6] = test system: MOLT-4 leukemia
[7] = test system: SNB-19 CNS
[8] = test system: SR leukemia
[9] = test system: SW-620 colon
[10] = test system: TK-10 renal

| SMILES | GI50 [1] | TGI [1] | TGI [2] | TGI [3] | TGI [4] [µM] | GI50 [5] | TGI [5] | TGI [6] | TGI [7] | GI50 [8] | TGI [8] | TGI [9] | TGI [10] | GI50 [2] | GI50 [3] [µM] | GI50 [4] | GI50 [6] [µM] | GI50 [7] | GI50 [9] | GI50 [10] |
| --- | --- | --- | --- | --- | --- | --- | --- | --- | --- | --- | --- | --- | --- | --- | --- | --- | --- | --- | --- | --- |
| CCN(CC)CCNc1n[n+]([O-])c2ccccc2[n+]1[O-] | 5.07 µM and 10.2 µM | 22.3 µM and 29.6 µM | 26.1 µM and 25 µM | 20 µM | 97.5 | 6.08 µM and 2.83 µM | 27.3 µM and 20.7 µM | 5.12 µM and 5.07 µM | > 72.1 µM and 56 µM | 2.92 µM and 6.7 µM | 6.87 µM and 28.7 µM | 82 µM and 55.9 µM | > 68.5 µM and 41.8 µM |  |  |  |  |  |  |  |
| O=Cc1ccc(-c2cccs2)s1 |  | > 100 µM | > 100 µM | > 100 µM | 98 |  | > 100 µM | > 100 µM | > 100 µM |  | > 100 µM | > 100 µM | 11.7 µM |  |  |  |  |  |  |  |
| COc1ccc(-c2cn[nH]c2-c2cc(OC)c3c(c2)OCCO3)cc1 | 0.102 µM | 46 µM | 22.4 µM | 47.6 µM | 34.4 | 0.179 µM | 10.9 µM | 34.3 µM | > 100 µM | 0.0473 µM | 14.2 µM | > 72.5 µM | 48.4 µM | 0.0635 µM | 0.264 | 0.231 µM | 0.706 | 0.33 µM | 0.0506 µM | 0.457 µM |
| O=C1NC2(CN3CCC2CC3)C(=O)N1CN(Cc1ccccc1)c1ccccc1 (stereo not given) |  | > 100 µM | > 100 µM | > 100 µM | > 100 |  | > 100 µM | > 100 µM | > 100 µM |  | 63.2 µM | > 100 µM | > 100 µM |  |  |  |  |  |  |  |
| O=C1CCCN1CC#CCN1CCCC1 | > 100 µM | > 100 µM | > 100 µM | > 100 µM | > 100 | > 100 µM | > 100 µM | > 100 µM | > 100 µM | > 100 µM | > 100 µM | > 100 µM | > 100 µM | > 100 µM | > 100 | > 100 µM | > 100 | > 100 µM | > 100 µM | > 100 µM |
| CC(=O)Nc1ccc(S(=O)(=O)NNC(=O)c2cccnc2Nc2ccc(Cl)cc2)cc1 | 32.4 µM | > 100 µM | > 100 µM | > 100 µM | > 100 | 41.6 µM | > 100 µM | > 100 µM | > 100 µM | 6.35 µM | > 100 µM | > 100 µM | > 100 µM | 13.7 µM | > 100 | 23.9 µM | 49.6 | 14.1 µM | 7.64 µM | 25.3 µM |
| COc1cc(Cn2c(-c3nonc3N)nc3ccccc32)ccc1C | 0.625 µM | > 100 µM | > 100 µM | 21.3 µM | 24.4 | 1.02 µM | 38.1 µM | > 100 µM | 45.5 µM | 0.516 µM | > 100 µM | > 100 µM | 30 µM | 0.427 µM | 0.568 | 0.326 µM | 0.692 | 0.626 µM | 0.334 µM | 1.09 µM |
| CCOc1c(Cl)cc(CNC(C)C(O)c2ccccc2)cc1OC (stereo not given) | 43.9 µM | > 100 µM | 67.4 µM | > 100 µM | 93 | 15.6 µM | 54.7 µM | 85.7 µM | > 100 µM | 17.1 µM | 52.5 µM | 58.1 µM | > 100 µM | 21.9 µM | 31 | 23.5 µM | 26 | 32.7 µM | 22.8 µM | 31.7 µM |
| Nc1ccc(S(=O)(=O)NCc2nccs2)cc1 |  | 94.3 µM | 83.8 µM | > 100 µM | 68.4 |  | 68.2 µM | 69 µM | > 100 µM |  | > 100 µM | > 100 µM | 56.5 µM |  |  |  |  |  |  |  |
| CC[C@@]1(O)C(=O)OCc2c1cc1n(c2=O)Cc2cc3cc(N)ccc3nc2-1 | 0.0373 µM and 0.0155 µM | 2.24 µM and 1.26 µM |  | 0.0157 µM and < 0.0151 µM |  | 0.199 µM and 0.345 µM | 3.11 µM | 0.143 µM | 4.11 µM and > 29.4 µM | 0.0134 µM | 0.0236 µM | 5.06 µM |  | 0.214 µM and 0.102 µM | 0.00135 | 0.532 µM and 2.41 µM | 0.00648 | 0.0169 µM and < 0.0119 µM | 0.0113 µM and < 0.031 µM | 0.385 µM and 0.169 µM |
